{"source": "patent US7399743B2", "about": "“Targeted thrombosis” (The Scripps Research Institute, priority 2001, dated 2008)", "key": {"[1]": {"tested_on": "integrin-expressing CHO K1 cells", "assay": "cell-mediated coagulation assay with CHO K1 cells and human plasma", "type": "cell-based", "procedure": "Coagulation assays were performed using an established procedure with some modifications to include a step for binding Tissue Factor constructs to cells. Platelet depleted, citrated human plasma pooled from multiple donors was used for these experiments. Cells are dislodged with trypsin free cell dissociation buffer (Gibco), and washed twice with TBS. Cells were then counted with cytometer. Only cells with viability greater than 90% were used for the assay. Varying concentrations of thrombogen were incubated with 10^5 cells in 100 ul TBS containing Ca^++ 10 mM and Mg^++ 5 mM for 15 minutes at 37° C. The assays were initiated by addition of 100 ul of pooled citrated plasma pre-warmed to 37° C. Clotting times were recorded as the interval between assay initiation and clot appearance.\nActivation of the coagulation cascade was measured using a coagulation assay. Varying concentrations of Fn-TF or Tissue Factor were incubated with CHO K1 cells for 15 minutes. Coagulation assays were initiated with addition of 100 ul of pooled normal human plasma. The coagulation time was recorded as the interim between the initiation of assay and the appearance of the first fibrin strands."}, "[2]": {"tested_on": "LnCap cells", "assay": "cell proliferation and viability assay (trypan blue)", "settings": "without / with D-β-E 0.1 uM", "method": "A cell proliferation and viability assay was employed to assess DβE inhibitor activity using trypan blue staining. LnCap cells (4×10^4 cells/well) were seeded in 96 well plates. Different concentrations of the DβE inhibitor or the Asp-Glu (D-E) substrate were added to the media as indicated. The % cell viability was determined 48 hours after treatment as the number of living cells (unstained) divided by total cells count (stain+unstained cells).\nA cell proliferation and viability assay was employed to assess DβE inhibitor activity using trypan blue staining. LnCap cells (4×10^4 cells/well) were seeded in 96 well plates. Different concentrations of the DβE inhibitor or the Asp-Glu (D-E) substrate were added to the media at the concentrations indicated in FIG. 13A. The % cell viability was determined 48 hours after treatment as the number of living cells (unstained) divided by total cells count (stain+unstained cells).\nThe cytotoxic effect of methotrexate was assessed with and without the presence of the PSMA inhibitor (D-β-E) or PSMA substrate (D-E) using a cell proliferation and viability assay."}, "[3]": {"biological_target": "NAALADase", "settings": "read-out: Ki, inhibition of NAALADase activity; cited from earlier work"}, "[4]": {"biological_target": "T1, Factor VIIa (Homo sapiens, UniProt P08709)", "T1 sequence (P08709 61-212 limits assumed)": "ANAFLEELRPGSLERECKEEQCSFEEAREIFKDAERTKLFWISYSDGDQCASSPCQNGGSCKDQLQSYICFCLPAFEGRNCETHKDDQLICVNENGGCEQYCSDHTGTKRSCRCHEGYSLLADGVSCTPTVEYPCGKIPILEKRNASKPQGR", "T1 sequence (P08709 213-466 limits assumed)": "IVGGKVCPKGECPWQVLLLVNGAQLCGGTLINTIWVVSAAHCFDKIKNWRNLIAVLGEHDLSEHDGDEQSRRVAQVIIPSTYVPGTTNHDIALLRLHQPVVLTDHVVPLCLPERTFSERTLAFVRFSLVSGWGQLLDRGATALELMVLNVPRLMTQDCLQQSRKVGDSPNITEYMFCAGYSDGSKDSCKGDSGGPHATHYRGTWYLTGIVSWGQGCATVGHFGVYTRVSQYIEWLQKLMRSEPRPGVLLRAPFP", "assay": "amidolytic assay of Factor VIIa bound to Fn-TF or TF 1-218", "type": "biochemical", "settings": "Factor VIIa 5nM, chromozym t-PA", "procedure": "The catalytic activity of Factor VIIa bound to Fn-TF for a peptidyl substrate was analyzed by hydrolysis of chromozym t-Pa (Boehringer Mannheim) and compared with that of the soluble TF 1-218. Varying concentrations TF 1-218 or Fn-TF were incubated with Factor VIIa at a final concentration of 5nM in the presence of 5 mM Ca^++ at ambient temperature for 15 minutes. Chromozym t-PA was added to a concentration of 1 mM. The initial rate of hydrolysis was measured at 406 nm with a kinetic micro-titer plate reader for 1 minute."}, "[5]": {"tested_on": "Factor X", "assay": "proteolytic activity of TF construct:Factor VIIa complexes toward Factor X", "type": "biochemical", "settings": "soluble complexes, increasing concentration", "procedure": "The proteolytic activities of both Fn-TF:Factor VIIa and TF 1-218:Factor VIIa complexes toward Factor X were determined by a functional assay (Schullek, Ruf et al. 1994) using Spectrozyme Factor Xa to assess Factor Xa generation. Briefly, varying concentrations of Fn-TF and TF1-218 were pre-incubated with Factor VIIa (75 nM) for 5 minutes at 37° C. in the presence of 5 mM CaCl2. The reaction was initiated by addition of substrate Factor X (1.5 uM). After incubation for 10 minutes at 37° C., the reaction was terminated by adding EDTA to a concentration of 0.1M. The amount of Factor Xa generated was determined by measuring Factor Xa amidolytic activity using […] of the chromogenic substrate Spectrozyme Fxa (American Diagnostica, Greenwich, Conn.). The rate of absorbance increase at 405 nM was measured in a kinetic micro-titer plate reader.\nThe effect of the fused docking structure on the proteolytic activity of TF:VIIa was studied by a linked functional assay (Schullek, Ruf et al. 1994). Varying concentrations of Fn-TF or TF1-218 were allowed to bind to 10 pM Factor VIIa for 5 minutes. […] The reaction was stopped by addition of 50 mM EDTA and the amount of Factor Xa generated was determined by measuring the Factor Xa amidolytic activity in the assay mixture using spetrozyme FXa as described above."}, "[6]": {"tested_on": "integrin on CHO cells", "assay": "binding of Fn-TF to integrin-expressing CHO K1 cells (Western blot)", "settings": "for association with CHO cells: varying concentrations, 10^5 CHO K1 cells", "procedure": "The binding of the Fn-TF protein to the integrin on CHO cells was monitored through direct incubation of varying concentrations of recombinant Fn-TF with 10^5 CHO K1 cells in TBS, 10 mM CaCl2, 5 mM MgSO4. The bound and unbound proteins were separated by centrifugation, and the bound Tissue Factor immunoreactivity was detected by Western blot. The amount of Tissue Factor bound was quantified by comparing the intensity of resulting bands on the membrane to that of a standard curve of Tissue Factor protein of known concentration using a densitometer."}, "[7]": {"assay": "median lethal dose in mice", "type": "in vivo", "settings": "20 gm Balb/C mice"}, "[8]": {"tested_on": "factor X", "settings": "native Tissue Factor in phospholipid membrane environment; cited from earlier work"}}, "note": "Entries after “also recorded” stand apart in the source; their conditions may differ.", "data": [{"molecule": "RGDS: RGDS (SEQ ID NO: 17) peptide that binds integrin (A RGDS peptide.) [reference compound]", "values": [{"measurement": "inhibition of Fn-TF coagulation activity by RGDS peptide", "setting": "[1]; Fn-TF (20 nM)+RGDS (500 μM), CHO K1 cells", "result": "fully blocked; also recorded: almost completely inhibited"}]}, {"molecule": "CN(Cc1cnc2nc(N)nc(N)c2n1)c1ccc(C(=O)N[C@@H](CCC(=O)O)C(=O)O)cc1", "note": "[MTX, methotrexate]", "values": [{"measurement": "ID50/ID50* (enhancement of tumoricidal activity)", "setting": "[2]", "result": 20}]}, {"molecule": "N[C@@H](Cn1oc(=O)[nH]c1=O)C(=O)O", "note": "[Quisqalic acid, quisqalic acid]", "values": [{"measurement": "Ki", "setting": "[3]", "result": 1900, "unit": "nM"}]}, {"molecule": "Fn-TF: fusion of fibronectin type III repeat domains 8-11 (SEQ ID NO:9) or domain 10 (SEQ ID NO:10) with Tissue Factor residues 3-218", "values": [{"measurement": "coagulation activity compared with CHO K1 cells expressing approximately 5×10^5 native Tissue Factor molecules", "setting": "[1]; 75 nM Fn-TF, 10^5 CHO K1 cells", "result": "approximately the same level of coagulation activity"}, {"measurement": "coagulation activity", "setting": "[1]; approximately 100,000 Fn-TF:integrin complexes per cell, CHO K1 cells", "result": "40,000 milliunits"}, {"measurement": "coagulation time", "setting": "[1]; approximately 100,000 Fn-TF:integrin complexes per cell, CHO K1 cells, human plasma", "result": "about 20 seconds"}, {"measurement": "cofactor enhancement of Factor VIIa amidolytic activity, compared with Tissue Factor", "setting": "[4]", "result": "Very little difference in amidolytic activity"}, {"measurement": "proteolytic activity of the Factor VIIa complex toward Factor X", "setting": "[5]", "result": "increased proteolytic activity similar to the curve obtained with TF1-218"}, {"measurement": "Fn-TF molecules bound per cell", "setting": "[6]; 75 nM Fn-TF incubated with 10^5 CHO K1 cells in 100 ul", "result": "approximately 5×10^5"}, {"measurement": "association with CHO cells", "setting": "[6]", "result": "increasing amounts of Fn-TF become associated with CHO cells"}, {"measurement": "LD50 (median lethal dose)", "setting": "[7]", "result": "about 8 ug"}]}, {"molecule": "truncated Tissue Factor: recombinant Tissue Factor containing only the extracellular domain, 219 amino acids, soluble (protein, listed as Homo sapiens) SGTTNTVAAYNLTWKSTNFKTILEWEPKPVNQVYTVQISTKSGDWKSKCFYTTDTECDLTDEIVKDVKQTYLARVFSYPAGNVESTGSAGEPLYENSPEFTPYLETNLGQPTIQSFEQVGTKVNVTVEDERTLVRRNNTFLSLRDVFGKDLIYTLYYWKSSSSGKKTAKTNTNEFLIDVDKGENYCFSVQAVIPSRTVNRKSTDSPVECMGQEKGEFRE", "values": [{"measurement": "times less factor X-activating activity than native Tissue Factor", "setting": "[8]", "result": "approximately 10^5"}]}, {"molecule": "TF1-218: soluble extracellular domain of human Tissue Factor, SEQ ID NO:4 (protein, listed as Homo sapiens) SGTTNTVAAYNLTWKSTNFKTILEWEPKPVNQVYTVQISTKSGDWKSKCFYTTDTECDLTDEIVKDVKQTYLARVFSYPAGNVESTGSAGEPLYENSPEFTPYLETNLGQPTIQSFEQVGTKVNVTVEDERTLVRRNNTFLSLRDVFGKDLIYTLYYWKSSSSGKKTAKTNTNEFLIDVDKGENYCFSVQAVIPSRTVNRKSTDSPVECMGQEKGEFR", "values": [{"measurement": "association with CHO cells", "setting": "[6]", "result": "no demonstrable association"}, {"measurement": "LD50 (median lethal dose)", "setting": "[7]", "result": "greater than 500 ug"}]}]}
